In PubChem BioAssay (NCI):
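Compound exposure: 48 hours, 5 concentrations, 96-well plates. GI50: concentration for 50% inhibition of growth. TGI is the concentration that stops growth completely.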

Experiments:
Experiment in all cases: DTP human tumour cell line panel, 48 h
786-0 renal = system: 786-0 renal
A498 renal = system: A498 renal
A549 NSCLC = system: A549 NSCLC
ACHN renal = system: ACHN renal
BT-549 breast = system: BT-549 breast
CAKI-1 renal = system: CAKI-1 renal
CCRF-CEM leukemia = system: CCRF-CEM leukemia
COLO 205 colon = system: COLO 205 colon
DU-145 prostate = system: DU-145 prostate
EKVX NSCLC = system: EKVX NSCLC
HCC-2998 colon = system: HCC-2998 colon
HCT-116 colon = system: HCT-116 colon
HCT-15 colon = system: HCT-15 colon
HL-60(TB) leukemia = system: HL-60(TB) leukemia
HOP-62 NSCLC = system: HOP-62 NSCLC
HOP-92 NSCLC = system: HOP-92 NSCLC
HS 578T breast = system: HS 578T breast
HT29 colon = system: HT29 colon
IGROV1 ovarian = system: IGROV1 ovarian
K-562 leukemia = system: K-562 leukemia
KM12 colon = system: KM12 colon
LOX IMVI melanoma = system: LOX IMVI melanoma
M14 melanoma = system: M14 melanoma
MALME-3M melanoma = system: MALME-3M melanoma
MCF7 breast = system: MCF7 breast
MDA-MB-231 breast = system: MDA-MB-231 breast
MDA-MB-435 = system: MDA-MB-435
MOLT-4 leukemia = system: MOLT-4 leukemia
NCI-H226 lung = system: NCI-H226 lung
NCI-H23 lung = system: NCI-H23 lung
NCI-H460 lung = system: NCI-H460 lung
NCI-H522 lung = system: NCI-H522 lung
NCI/ADR-RES ovarian = system: NCI/ADR-RES ovarian
OVCAR-4 ovarian = system: OVCAR-4 ovarian
OVCAR-5 ovarian = system: OVCAR-5 ovarian
OVCAR-8 ovarian = system: OVCAR-8 ovarian
PC-3 prostate = system: PC-3 prostate
RPMI-8226 leukemia = system: RPMI-8226 leukemia
RXF 393 renal = system: RXF 393 renal
SF-268 CNS = system: SF-268 CNS
SF-295 CNS = system: SF-295 CNS
SF-539 CNS = system: SF-539 CNS
SK-MEL-2 melanoma = system: SK-MEL-2 melanoma
SK-MEL-28 melanoma = system: SK-MEL-28 melanoma
SK-MEL-5 melanoma = system: SK-MEL-5 melanoma
SK-OV-3 ovarian = system: SK-OV-3 ovarian
SN12C renal = system: SN12C renal
SNB-19 CNS = system: SNB-19 CNS
SNB-75 CNS = system: SNB-75 CNS
SR leukemia = system: SR leukemia
SW-620 colon = system: SW-620 colon
T-47D breast = system: T-47D breast
TK-10 renal = system: TK-10 renal
U251 CNS = system: U251 CNS
UACC-257 melanoma = system: UACC-257 melanoma
UACC-62 melanoma = system: UACC-62 melanoma
UO-31 renal = system: UO-31 renal

Oc1ccc(CSc2nnc(-c3ccncc3)n2-c2ccccc2)c2cccnc12
GI50 (786-0 renal): 3400 nM
TGI (786-0 renal): 20000 nM
GI50 (A498 renal): 2600 nM
TGI (A498 renal): 8640 nM
GI50 (A549 NSCLC): 1750 nM
TGI (A549 NSCLC): > 100000 nM
GI50 (ACHN renal): 794 nM
TGI (ACHN renal): > 28400 nM
GI50 (BT-549 breast): 596 nM
TGI (BT-549 breast): > 63100 nM
GI50 (CAKI-1 renal): 1610 nM
TGI (CAKI-1 renal): > 100000 nM
GI50 (CCRF-CEM leukemia): 513 nM
TGI (CCRF-CEM leukemia): > 100000 nM
GI50 (COLO 205 colon): 19200 nM
TGI (COLO 205 colon): > 80400 nM
GI50 (DU-145 prostate): 686 nM
TGI (DU-145 prostate): > 100000 nM
GI50 (EKVX NSCLC): 1400 nM
TGI (EKVX NSCLC): 21100 nM
GI50 (HCC-2998 colon): 3140 nM
TGI (HCC-2998 colon): > 100000 nM
GI50 (HCT-116 colon): 376 nM
TGI (HCT-116 colon): > 100000 nM
GI50 (HCT-15 colon): 363 nM
TGI (HCT-15 colon): > 100000 nM
GI50 (HL-60(TB) leukemia): 677 nM
TGI (HL-60(TB) leukemia): 5320 nM
GI50 (HOP-62 NSCLC): 773 nM
TGI (HOP-62 NSCLC): 16300 nM
GI50 (HOP-92 NSCLC): 192 nM
TGI (HOP-92 NSCLC): 628 nM
GI50 (HS 578T breast): 473 nM
TGI (HS 578T breast): > 84800 nM
GI50 (HT29 colon): 3870 nM
TGI (HT29 colon): > 100000 nM
GI50 (IGROV1 ovarian): 1040 nM
TGI (IGROV1 ovarian): > 57000 nM
GI50 (K-562 leukemia): 363 nM
TGI (K-562 leukemia): > 100000 nM
GI50 (KM12 colon): 2270 nM
TGI (KM12 colon): > 100000 nM
GI50 (LOX IMVI melanoma): 471 nM
TGI (LOX IMVI melanoma): > 27900 nM
GI50 (M14 melanoma): 765 nM
TGI (M14 melanoma): 5960 nM
GI50 (MALME-3M melanoma): 1050 nM
TGI (MALME-3M melanoma): > 81500 nM
GI50 (MCF7 breast): 357 nM
TGI (MCF7 breast): > 100000 nM
GI50 (MDA-MB-231 breast): 1260 nM
TGI (MDA-MB-231 breast): > 55600 nM
GI50 (MDA-MB-435): 462 nM
TGI (MDA-MB-435): > 100000 nM
GI50 (MOLT-4 leukemia): 720 nM
TGI (MOLT-4 leukemia): > 100000 nM
GI50 (NCI-H226 lung): 3490 nM
TGI (NCI-H226 lung): > 100000 nM
GI50 (NCI-H23 lung): 433 nM
TGI (NCI-H23 lung): > 46500 nM
GI50 (NCI-H460 lung): 375 nM
TGI (NCI-H460 lung): 14400 nM
GI50 (NCI-H522 lung): 369 nM
TGI (NCI-H522 lung): > 100000 nM
GI50 (NCI/ADR-RES ovarian): 309 nM
TGI (NCI/ADR-RES ovarian): > 26400 nM
GI50 (OVCAR-4 ovarian): 3180 nM
TGI (OVCAR-4 ovarian): > 100000 nM
GI50 (OVCAR-5 ovarian): 3690 nM
TGI (OVCAR-5 ovarian): > 100000 nM
GI50 (OVCAR-8 ovarian): 493 nM
TGI (OVCAR-8 ovarian): > 100000 nM
GI50 (PC-3 prostate): 735 nM
TGI (PC-3 prostate): > 100000 nM
GI50 (RPMI-8226 leukemia): 391 nM
TGI (RPMI-8226 leukemia): > 100000 nM
GI50 (RXF 393 renal): 2830 nM
TGI (RXF 393 renal): 70500 nM
GI50 (SF-268 CNS): 804 nM
TGI (SF-268 CNS): > 100000 nM
GI50 (SF-295 CNS): 1140 nM
TGI (SF-295 CNS): > 38500 nM
GI50 (SF-539 CNS): 769 nM
TGI (SF-539 CNS): 31300 nM
GI50 (SK-MEL-2 melanoma): 628 nM
TGI (SK-MEL-2 melanoma): > 100000 nM
GI50 (SK-MEL-28 melanoma): 1790 nM
TGI (SK-MEL-28 melanoma): > 100000 nM
GI50 (SK-MEL-5 melanoma): 761 nM
TGI (SK-MEL-5 melanoma): 5600 nM
GI50 (SK-OV-3 ovarian): 2320 nM
TGI (SK-OV-3 ovarian): > 29400 nM
GI50 (SN12C renal): 385 nM
TGI (SN12C renal): > 100000 nM
GI50 (SNB-19 CNS): 453 nM
TGI (SNB-19 CNS): > 89200 nM
GI50 (SNB-75 CNS): 642 nM
TGI (SNB-75 CNS): 43000 nM
GI50 (SR leukemia): 396 nM
TGI (SR leukemia): > 100000 nM
GI50 (SW-620 colon): 542 nM
TGI (SW-620 colon): > 100000 nM
GI50 (T-47D breast): 1440 nM
TGI (T-47D breast): > 45400 nM
GI50 (TK-10 renal): 3250 nM
TGI (TK-10 renal): > 100000 nM
GI50 (U251 CNS): 422 nM
TGI (U251 CNS): 63600 nM
GI50 (UACC-257 melanoma): 2400 nM
TGI (UACC-257 melanoma): > 31300 nM
GI50 (UACC-62 melanoma): 1750 nM
TGI (UACC-62 melanoma): 7520 nM
GI50 (UO-31 renal): 451 nM
TGI (UO-31 renal): 12800 nM
